Results from article PMC11774906, “Volume-regulated anion channels conduct ATP in undifferentiated mammary cells and promote tumorigenesis in xenograft nude mouse” (Frontiers in Cell and Developmental Biology, 2025).

Molecular target: T1, volume-regulated anion channels (VRACs); LRRC8A-containing hexamer (Homo sapiens, UniProt Q8IWT6)
T1 construct: native channel in intact MCF10A cells; LRRC8 heterohexamer of undefined subunit composition, LRRC8A essential; A, C, D prominently expressed, B and E minimal
T1 sequence (Q8IWT6 1-810): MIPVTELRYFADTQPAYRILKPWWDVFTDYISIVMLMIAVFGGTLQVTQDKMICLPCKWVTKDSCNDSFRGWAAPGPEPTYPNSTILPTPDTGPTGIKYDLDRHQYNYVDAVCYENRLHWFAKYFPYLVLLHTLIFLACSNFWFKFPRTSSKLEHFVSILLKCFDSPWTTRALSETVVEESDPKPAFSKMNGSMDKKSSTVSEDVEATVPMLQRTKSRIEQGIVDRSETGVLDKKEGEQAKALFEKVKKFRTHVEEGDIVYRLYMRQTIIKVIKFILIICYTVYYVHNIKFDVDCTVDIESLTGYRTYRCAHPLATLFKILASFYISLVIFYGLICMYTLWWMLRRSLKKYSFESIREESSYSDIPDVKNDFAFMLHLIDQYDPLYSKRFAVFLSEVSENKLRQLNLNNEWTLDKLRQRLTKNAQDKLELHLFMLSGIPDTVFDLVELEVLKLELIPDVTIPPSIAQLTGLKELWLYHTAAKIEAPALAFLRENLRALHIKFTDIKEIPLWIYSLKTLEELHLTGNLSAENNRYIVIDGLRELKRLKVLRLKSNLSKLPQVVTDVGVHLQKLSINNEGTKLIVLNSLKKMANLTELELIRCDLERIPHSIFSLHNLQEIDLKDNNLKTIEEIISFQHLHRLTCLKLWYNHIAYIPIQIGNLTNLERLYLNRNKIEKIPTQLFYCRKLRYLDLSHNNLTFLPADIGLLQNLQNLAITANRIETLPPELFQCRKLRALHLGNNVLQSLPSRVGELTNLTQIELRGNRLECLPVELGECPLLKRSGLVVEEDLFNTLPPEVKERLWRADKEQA
T1 sequence (Q8TDW0 1-803 partner): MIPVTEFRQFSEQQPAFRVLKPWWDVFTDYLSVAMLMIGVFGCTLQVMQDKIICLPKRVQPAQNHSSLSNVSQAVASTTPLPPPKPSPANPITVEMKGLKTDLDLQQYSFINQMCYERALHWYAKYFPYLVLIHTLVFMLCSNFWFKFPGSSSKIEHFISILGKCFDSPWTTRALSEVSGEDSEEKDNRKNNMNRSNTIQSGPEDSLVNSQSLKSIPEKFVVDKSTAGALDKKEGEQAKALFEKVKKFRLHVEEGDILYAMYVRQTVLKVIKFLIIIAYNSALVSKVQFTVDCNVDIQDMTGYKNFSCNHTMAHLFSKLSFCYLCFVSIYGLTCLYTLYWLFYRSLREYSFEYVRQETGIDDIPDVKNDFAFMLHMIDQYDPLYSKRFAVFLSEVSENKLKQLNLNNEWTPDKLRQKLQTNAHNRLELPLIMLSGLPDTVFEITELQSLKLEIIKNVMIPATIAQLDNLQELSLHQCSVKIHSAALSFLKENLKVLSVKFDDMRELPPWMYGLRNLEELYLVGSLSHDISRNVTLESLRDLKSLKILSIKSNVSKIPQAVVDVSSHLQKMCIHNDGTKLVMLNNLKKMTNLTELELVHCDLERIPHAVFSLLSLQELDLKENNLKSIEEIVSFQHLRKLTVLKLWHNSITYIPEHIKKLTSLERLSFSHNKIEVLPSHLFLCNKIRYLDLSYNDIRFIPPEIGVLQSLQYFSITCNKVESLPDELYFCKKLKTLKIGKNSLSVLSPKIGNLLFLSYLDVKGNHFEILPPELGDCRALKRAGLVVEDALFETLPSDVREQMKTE
T1 sequence (Q7L1W4 1-858 partner): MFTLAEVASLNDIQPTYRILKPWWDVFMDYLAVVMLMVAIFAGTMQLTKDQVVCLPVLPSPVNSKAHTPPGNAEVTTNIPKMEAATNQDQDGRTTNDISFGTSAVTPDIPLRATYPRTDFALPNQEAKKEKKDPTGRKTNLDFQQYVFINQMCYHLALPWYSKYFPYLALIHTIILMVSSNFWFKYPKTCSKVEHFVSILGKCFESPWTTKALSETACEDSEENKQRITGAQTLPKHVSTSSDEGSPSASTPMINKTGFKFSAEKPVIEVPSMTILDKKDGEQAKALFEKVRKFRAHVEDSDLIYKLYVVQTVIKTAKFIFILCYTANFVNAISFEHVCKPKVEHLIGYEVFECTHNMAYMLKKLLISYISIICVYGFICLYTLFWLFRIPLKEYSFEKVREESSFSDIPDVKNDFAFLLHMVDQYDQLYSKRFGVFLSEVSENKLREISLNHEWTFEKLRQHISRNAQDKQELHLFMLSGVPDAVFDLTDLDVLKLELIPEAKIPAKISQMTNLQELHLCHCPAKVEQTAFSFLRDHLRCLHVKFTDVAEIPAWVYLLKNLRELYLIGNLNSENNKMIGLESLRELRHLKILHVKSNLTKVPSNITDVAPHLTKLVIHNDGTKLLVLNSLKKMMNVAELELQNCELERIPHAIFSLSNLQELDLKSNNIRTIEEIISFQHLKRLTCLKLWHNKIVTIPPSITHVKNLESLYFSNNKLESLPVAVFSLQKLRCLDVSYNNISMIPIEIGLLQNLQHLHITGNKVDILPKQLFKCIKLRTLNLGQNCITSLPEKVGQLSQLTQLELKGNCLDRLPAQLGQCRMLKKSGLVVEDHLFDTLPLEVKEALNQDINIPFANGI
Assay: luciferin-luciferase imaging of hypotonic diffuse ATP release in MCF10A cells
Format: cell-based
Details: 50% hypotonic stress; pH 7.4, 30 °C; decay of ATP signal after DCPIB, exponential fit; indirect read-out (ATP release)

CCCCC1(C2CCCC2)Cc2cc(OCCCC(=O)O)c(Cl)c(Cl)c2C1=O (stereo not shown) [DCPIB, 4-[(2-Butyl-6,7-dichloro-2-cyclopentyl-2,3-dihydro-1-oxo-1H-inden-5-yl)oxy] butanoic acid]
IC50: 38.5 µM
